The text below walks through data of patent US20100286247A1, “Methods of Protection from Oxidative Stress” (Trustees of Boston University, priority 2005, published 2010).

One data set deals with SOD2 mRNA. The experiment in a line: Northern blot analysis of antioxidant enzyme mRNA: SOD2. Format: cell-based, human. Particulars: 100 μM pTT, 8-72 hours, three donors. How it is done: Cell culture followed previously published methods.^92 Primary human newborn dermal fibroblasts were cultured from neonatal circumcised foreskin specimens. The skin samples were treated overnight in a 0.25% trypsin solution at 4° C. to separate the epidermis from the dermis. The separated dermis was then cut into pieces and plated onto etched plastic tissue culture dishes. Primary culture medium consisted of DMEM supplemented with 10% bovine CS, 50 U/ml penicillin and 50 μg/ml streptomycin sulfate. […] Secondary culture medium consisted of DMEM supplemented with 10% CS.
Purified 5′-phosphorylated thymidine dinucleotides (pTT) (Midland Certified Reagents, Inc., Texas) purified by gel filtration and analyzed by mass spectroscopy, were obtained in lyophilized form. […] The stock solution was syringe filter-sterilized through a 0.2 μm pore filter and spectrophotometrically analyzed (absorbance at 260 and 280 nm) to determine the concentration, and frozen in aliquots at −20° C. […]
Cells were harvested in Trizol (Gibco BRL, Gaithersburg, Md.) and stored at −70° C. […] RNA solutions were measured by spectrophotometer readings at 260 nm and 280 nm to determine concentration and purity. […]
Northern and western films as well as stained membranes and pictures of ethidium bromide-stained gels were digitally scanned and analyzed by densitometry. […]

Data set [1] concerns extracellular H2O2 from newborn fibroblasts. The experiment in a line: Extracellular hydrogen peroxide generation assay (horseradish peroxidase). The class given is cell-based, human. Particulars: 100 μM, two days treatment. As for the experimental part: This assay was described by Ruch et al. for measurement of H2O2 production by macrophages and neutrophils^93 and modified for cultured cytokine-stimulated human lung fibroblasts by Thannickal et al.^94 Briefly, it utilizes horseradish peroxidase (HRP) to catalyze H2O2-dependent dimerization of tyrosine in homovanillic acid (HVA), where the H2O2 is the extracellular fraction of H2O2 produced by stimulated cells. Fibroblasts were seeded at 0.5×10^4 cells/cm^2 and treated the following day with diluent, 100 μM pTT, 100 μM pAA, 40 μM TO or 40 μM TOC1 for two days. These doses were determined in previous studies to be the optimal effective doses to achieve p53 induction and cell cycle arrest in fibroblasts within the parameters used in these investigations (cell seeding density and time of treatment).^13,142 An assay medium consisting of sterile Hanks' Balanced Salt Solution (HBSS), HRP (5 U/ml) and HVA ([…]) was added to cells after removal of the T-oligo-supplemented medium. […] Each sample was fluorometrically analyzed by excitation of the dimerized tyrosine product at 323 nm with emission measured at 423 nm (Perkin-Elmer LS-5B Luminescence Spectrometer). The same cells were then harvested and counted by Coulter Counter. […] Using the cell count results, H2O2 production was expressed as a function of time and cell number (pmol/min/million cells). […]

Data set [2] deals with S91 melanoma cells, cultured melanocytes, guinea pig skin. Conditions: solutions of pTT; cited from earlier work.
A further data set concerns total p53 protein. Conditions: 40 μM, published reports; cited from earlier work.
For the next data set, the system named is human dermal fibroblasts. Particulars: treatment for 7 days, Li et al.; cited from earlier work.

{P} = phosphate

On to “5′-phosphorylated thymidine dinucleotides [pTT]”, for which, in the data set with SOD2 mRNA, the “SOD2 mRNA level compared to diluent” value was “no difference between pTT- and diluent-treated cells”. In addition, in data set [1], the “extracellular H2O2 production” value is reported as “does not yield extracellular H2O2”. Also, in data set [2], the melanin production entry is “enhanced melanin production”.
For “pGTTAGGGTTAG (5' {P}, sugars by position and backbone not given here) [TO]”, the “time to p53 induction” value with total p53 protein is not above 8 h. The “cells expressing senescence-associated-β-galactosidase after prolonged treatment” value in the data set with human dermal fibroblasts is recorded as “over 60%”.
